This note sets out measurements from PubChem BioAssay (NCI).

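Five concentrations, 48 hours, 96-well plates. The concentration for full growth arrest is given as TGI.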

One assay relates to U251 CNS. Description: DTP human tumour cell line panel, 48 h.
`CC(CCC#N)(CCC#N)C(=O)CC(O)(C(F)(F)F)C(F)(F)F` displayed a TGI of 33.2 µM.

Molecule `CC(C)(C)[Si](C)(C)OC1/C(=C/C#N)C(n2ccc(=O)[nH]c2=O)OC1CO` (centres undefined) displayed a TGI above 100 µM.

In turn, `CC(=O)Nc1ccc2cc(C)c(=O)[nH]c2n1` yielded a TGI above 100 µM.

Turning to `Nc1nc2c(ncn2Cc2ccc(CO)cc2)c(=O)[nH]1`, the TGI is above 100 µM.

Turning to `O=C(NS(=O)(=O)OCC(Cl)(Cl)Cl)SCCC(F)(F)C(F)(F)C(F)(F)C(F)(F)C(F)(F)C(F)(F)F`, the TGI was found to be 51.8 µM.

As to `Cc1cc(C)nc(NS(=O)(=O)c2ccc(NNC(=O)c3cccc4c(=O)c5ccccc5[nH]c34)cc2)n1`, the TGI is above 100 µM.

The molecule `CN1CCN(CN2C(=O)C3C4C=CC(C3C2=O)C2C(=O)N(CN3CCN(C)CC3)C(=O)C42)CC1` (centres undefined) yielded a TGI above 100 µM.

In turn, `Cc1ccc(NC(=S)NNC(=O)c2cc(-c3ccccc3)nc3ccccc23)cc1` gave a TGI of 20.2 µM.

`O=C(O)c1cccnc1` registered a TGI above 100 µM.

On to `Cc1cn(CCCCCOC(=O)NC(CCCN=C(N)N)C(=O)O)c(=O)[nH]c1=O` (centres undefined), for which the TGI was above 100 µM.

For the molecule `COc1ccc(C(=O)/C=C/c2ccncc2)cc1OC`, the TGI was determined as 23.2 µM.

Regarding `Cc1ccc(C(=O)N/N=C(\N=Nc2ccccc2[N+](=O)[O-])c2ccc(N(C)C)cc2)cc1`, the TGI is above 100 µM.

`CC(C)C1=C(Cc2ccccc2)C(=O)O/C1=C\c1cc(Cl)c(O)c(Cl)c1` had a TGI of 31.8 µM.

Consider `O=S(=O)(O)c1ccc(N=Nc2ccc(N=Nc3c(O)ccc4ccccc34)cc2)cc1`, for which the TGI is above 100 µM.

For the next assay, the system named is EKVX NSCLC. The assay can be described thus: DTP human tumour cell line panel, 48 h.
With `CC(CCC#N)(CCC#N)C(=O)CC(O)(C(F)(F)F)C(F)(F)F`, the TGI is 44.1 µM.

The molecule `CC(=O)Nc1ccc2cc(C)c(=O)[nH]c2n1` returned a TGI above 100 µM.

Take `Nc1nc2c(ncn2Cc2ccc(CO)cc2)c(=O)[nH]1`: the TGI was above 100 µM.

`O=C(NS(=O)(=O)OCC(Cl)(Cl)Cl)SCCC(F)(F)C(F)(F)C(F)(F)C(F)(F)C(F)(F)C(F)(F)F` returned a TGI of 35.5 µM.

`Cc1cc(C)nc(NS(=O)(=O)c2ccc(NNC(=O)c3cccc4c(=O)c5ccccc5[nH]c34)cc2)n1`: the total growth inhibition concentration (TGI) was 98.9 µM.

Take `CN1CCN(CN2C(=O)C3C4C=CC(C3C2=O)C2C(=O)N(CN3CCN(C)CC3)C(=O)C42)CC1` (centres undefined): the TGI is above 100 µM.

As to `O=C(O)c1cccnc1`, the TGI was above 100 µM.

In the case of `Cc1cn(CCCCCOC(=O)NC(CCCN=C(N)N)C(=O)O)c(=O)[nH]c1=O` (centres undefined), the TGI is above 100 µM.

`COc1ccc(C(=O)/C=C/c2ccncc2)cc1OC` gave a TGI of 30.5 µM.

Molecule `Cc1ccc(C(=O)N/N=C(\N=Nc2ccccc2[N+](=O)[O-])c2ccc(N(C)C)cc2)cc1` displayed a TGI above 100 µM.

In turn, `CC1C[C@]2(C)C(=O)Nc3ccccc3[C@@H]2Nc2ccccc21` (some centres undefined) gave a TGI of 81.8 µM.

`CC(C)C1=C(Cc2ccccc2)C(=O)O/C1=C\c1cc(Cl)c(O)c(Cl)c1` returned a concentration for total growth inhibition (TGI) of 65.1 µM.

In turn, `O=S(=O)(O)c1ccc(N=Nc2ccc(N=Nc3c(O)ccc4ccccc34)cc2)cc1` came in with a TGI above 100 µM.

The test system of the next assay is HCC-2998 colon. Description: DTP human tumour cell line panel, 48 h.
Consider `CC(CCC#N)(CCC#N)C(=O)CC(O)(C(F)(F)F)C(F)(F)F`, for which the TGI was determined as 31.3 µM.

Molecule `Cc1cc(C)nc(NS(=O)(=O)c2ccc(NNC(=O)c3cccc4c(=O)c5ccccc5[nH]c34)cc2)n1` returned a TGI above 100 µM.

In the case of `CN1CCN(CN2C(=O)C3C4C=CC(C3C2=O)C2C(=O)N(CN3CCN(C)CC3)C(=O)C42)CC1` (centres undefined), the TGI was above 100 µM.

With `Cc1ccc(NC(=S)NNC(=O)c2cc(-c3ccccc3)nc3ccccc23)cc1`, the TGI came to 24.3 µM.

The molecule `O=C(O)c1cccnc1` gave a TGI above 100 µM.

With `Cc1cn(CCCCCOC(=O)NC(CCCN=C(N)N)C(=O)O)c(=O)[nH]c1=O` (centres undefined), the TGI is above 100 µM.

On to `Cc1ccc(C(=O)N/N=C(\N=Nc2ccccc2[N+](=O)[O-])c2ccc(N(C)C)cc2)cc1`, for which the TGI was above 100 µM.

In the case of `CC1C[C@]2(C)C(=O)Nc3ccccc3[C@@H]2Nc2ccccc21` (some centres undefined), the TGI stood at 88.5 µM.

On to `CC(C)C1=C(Cc2ccccc2)C(=O)O/C1=C\c1cc(Cl)c(O)c(Cl)c1`, for which the TGI amounted to 42.3 µM.

For the molecule `O=S(=O)(O)c1ccc(N=Nc2ccc(N=Nc3c(O)ccc4ccccc34)cc2)cc1`, the TGI was above 100 µM.

A further assay relates to MDA-MB-435. The assay can be described thus: DTP human tumour cell line panel, 48 h.
For the molecule `CC(CCC#N)(CCC#N)C(=O)CC(O)(C(F)(F)F)C(F)(F)F`, the TGI was found to be 72.7 µM.

Regarding `CC(C)(C)[Si](C)(C)OC1/C(=C/C#N)C(n2ccc(=O)[nH]c2=O)OC1CO` (centres undefined), the TGI was above 100 µM.

For the molecule `CC(=O)Nc1ccc2cc(C)c(=O)[nH]c2n1`, the TGI is above 100 µM.

As for `Nc1nc2c(ncn2Cc2ccc(CO)cc2)c(=O)[nH]1`, the total growth inhibition concentration (TGI) is above 100 µM.

Molecule `O=C(NS(=O)(=O)OCC(Cl)(Cl)Cl)SCCC(F)(F)C(F)(F)C(F)(F)C(F)(F)C(F)(F)C(F)(F)F` showed a TGI of 55 µM.

`Cc1cc(C)nc(NS(=O)(=O)c2ccc(NNC(=O)c3cccc4c(=O)c5ccccc5[nH]c34)cc2)n1` gave a TGI above 100 µM.

In turn, `CN1CCN(CN2C(=O)C3C4C=CC(C3C2=O)C2C(=O)N(CN3CCN(C)CC3)C(=O)C42)CC1` (centres undefined) displayed a TGI above 100 µM.

In turn, `Cc1ccc(NC(=S)NNC(=O)c2cc(-c3ccccc3)nc3ccccc23)cc1` showed a TGI of 10.9 µM.

As for `O=C(O)c1cccnc1`, the TGI is above 100 µM.

Regarding `Cc1cn(CCCCCOC(=O)NC(CCCN=C(N)N)C(=O)O)c(=O)[nH]c1=O` (centres undefined), the TGI is 47.5 µM.

`COc1ccc(C(=O)/C=C/c2ccncc2)cc1OC` displayed a TGI of 28.1 µM.

For `Cc1ccc(C(=O)N/N=C(\N=Nc2ccccc2[N+](=O)[O-])c2ccc(N(C)C)cc2)cc1`, the TGI is above 100 µM.

Take `CC1C[C@]2(C)C(=O)Nc3ccccc3[C@@H]2Nc2ccccc21` (some centres undefined): the TGI was determined as 55.5 µM.

In turn, `CC(C)C1=C(Cc2ccccc2)C(=O)O/C1=C\c1cc(Cl)c(O)c(Cl)c1` registered a TGI of 35.4 µM.

In turn, `O=S(=O)(O)c1ccc(N=Nc2ccc(N=Nc3c(O)ccc4ccccc34)cc2)cc1` returned a TGI above 100 µM.

The next assay concerns NCI-H522 lung. Description: DTP human tumour cell line panel, 48 h.
For `CC(C)(C)[Si](C)(C)OC1/C(=C/C#N)C(n2ccc(=O)[nH]c2=O)OC1CO` (centres undefined), the TGI was above 100 µM.

Consider `CC(=O)Nc1ccc2cc(C)c(=O)[nH]c2n1`, for which the TGI was above 100 µM.

`Nc1nc2c(ncn2Cc2ccc(CO)cc2)c(=O)[nH]1` displayed a TGI above 100 µM.

Molecule `O=C(NS(=O)(=O)OCC(Cl)(Cl)Cl)SCCC(F)(F)C(F)(F)C(F)(F)C(F)(F)C(F)(F)C(F)(F)F` displayed a TGI of 41.8 µM.

In the case of `Cc1cc(C)nc(NS(=O)(=O)c2ccc(NNC(=O)c3cccc4c(=O)c5ccccc5[nH]c34)cc2)n1`, the TGI is above 100 µM.

For `CN1CCN(CN2C(=O)C3C4C=CC(C3C2=O)C2C(=O)N(CN3CCN(C)CC3)C(=O)C42)CC1` (centres undefined), the TGI is above 59.5 µM.

The molecule `Cc1ccc(NC(=S)NNC(=O)c2cc(-c3ccccc3)nc3ccccc23)cc1` showed a TGI of 39 µM.

In the case of `O=C(O)c1cccnc1`, the TGI is above 100 µM.

Consider `COc1ccc(C(=O)/C=C/c2ccncc2)cc1OC`, for which the TGI came to 21.7 µM.

For `Cc1ccc(C(=O)N/N=C(\N=Nc2ccccc2[N+](=O)[O-])c2ccc(N(C)C)cc2)cc1`, the TGI was above 100 µM.

`O=S(=O)(O)c1ccc(N=Nc2ccc(N=Nc3c(O)ccc4ccccc34)cc2)cc1` came in with a TGI above 100 µM.

The next assay concerns NCI/ADR-RES ovarian. Description: DTP human tumour cell line panel, 48 h.
Turning to `CC(CCC#N)(CCC#N)C(=O)CC(O)(C(F)(F)F)C(F)(F)F`, the TGI was 22.7 µM.

`CC(C)(C)[Si](C)(C)OC1/C(=C/C#N)C(n2ccc(=O)[nH]c2=O)OC1CO` (centres undefined): the TGI is above 100 µM.

Take `CC(=O)Nc1ccc2cc(C)c(=O)[nH]c2n1`: the TGI is above 100 µM.

Molecule `Nc1nc2c(ncn2Cc2ccc(CO)cc2)c(=O)[nH]1` yielded a TGI above 100 µM.

Regarding `O=C(NS(=O)(=O)OCC(Cl)(Cl)Cl)SCCC(F)(F)C(F)(F)C(F)(F)C(F)(F)C(F)(F)C(F)(F)F`, the TGI was 48.1 µM.

Molecule `Cc1cc(C)nc(NS(=O)(=O)c2ccc(NNC(=O)c3cccc4c(=O)c5ccccc5[nH]c34)cc2)n1` returned a TGI above 100 µM.
